Experimental findings from patent US20060287378A1, “Novel pyrroles and imidazoles” (priority 2003, published 2006) are described below.

Broadly, the melting point is the temperature, or range, at which the solid turns liquid. The IC50 is the concentration that inhibits the measured activity by half.

Where two headings read alike, the source gives them in different places.

For data set [1], the target named is T1, HMGCoA (3-Hydroxy-3-methylglutaryl CoA) Reductase (Rattus norvegicus, UniProt P51639).
T1 construct: Male Charles River Sprague-Dawley rats were fed with 2.5% cholestyramine in rat chow diets for 5 days before sacrificing; from tissue; host or cells: liver microsomes of male Sprague-Dawley rats fed cholestyramine
T1 sequence (P51639 1-887): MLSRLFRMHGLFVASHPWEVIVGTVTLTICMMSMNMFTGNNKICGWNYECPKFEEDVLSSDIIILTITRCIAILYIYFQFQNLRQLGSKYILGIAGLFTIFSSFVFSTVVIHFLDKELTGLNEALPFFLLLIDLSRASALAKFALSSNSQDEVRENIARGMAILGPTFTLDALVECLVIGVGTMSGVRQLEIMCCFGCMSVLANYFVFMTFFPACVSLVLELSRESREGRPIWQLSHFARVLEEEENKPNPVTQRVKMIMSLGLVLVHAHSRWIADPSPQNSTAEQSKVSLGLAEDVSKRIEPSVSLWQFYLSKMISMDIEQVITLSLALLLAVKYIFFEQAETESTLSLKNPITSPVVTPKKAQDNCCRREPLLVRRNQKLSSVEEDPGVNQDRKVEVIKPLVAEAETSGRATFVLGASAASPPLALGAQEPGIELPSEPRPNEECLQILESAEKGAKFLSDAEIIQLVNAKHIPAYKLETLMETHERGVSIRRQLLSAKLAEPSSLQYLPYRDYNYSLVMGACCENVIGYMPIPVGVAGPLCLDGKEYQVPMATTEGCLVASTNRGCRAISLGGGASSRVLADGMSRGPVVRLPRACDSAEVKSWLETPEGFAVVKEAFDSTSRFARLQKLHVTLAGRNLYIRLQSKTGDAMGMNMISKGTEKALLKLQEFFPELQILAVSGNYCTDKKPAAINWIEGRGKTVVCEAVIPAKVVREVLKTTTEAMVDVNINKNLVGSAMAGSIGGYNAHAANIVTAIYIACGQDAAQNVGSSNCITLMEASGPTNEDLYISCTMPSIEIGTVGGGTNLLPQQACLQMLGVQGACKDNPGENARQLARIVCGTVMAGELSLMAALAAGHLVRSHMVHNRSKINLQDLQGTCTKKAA
Put plainly: HMGCoA reductase assay with rat liver microsomes (14C-HMGCoA). The class given is biochemical. The conditions noted are these: in vitro assay, 45 min at 37° C. As for the experimental part: Rat Liver Microsomal Isolation Procedure:
Male Charles River Sprague-Dawley rats were fed with 2.5% cholestyramine in rat chow diets for 5 days before sacrificing. Livers were minced and homogenized in a sucrose homogenizing solution in an ice bath 10 times. Homogenates were diluted into a final volume of 200 mL, and centrifuged 15 min. with a Sorvall Centrifuge at 5° C., 10,000 rpm (12,000×G). The upper fat layer was removed and the supernatant decanted into fresh tubes. This step was repeated one more time before transferring the supernatant into ultracentrifuge tubes and centrifuged at 36,000 rpm (105,000×G) for an hour at 5° C. The resulting supernatant was discarded and the pellet was added to total of 15 mL 0.2 M KH2PO4. Pellets were homogenized gently by hand about 10 times. Samples were pooled and diluted into total of 60 mL buffer. The protein concentration of the homogenate was determined by the […] using a BCA (Bicinchoninic acid), kit from Pierce Chemical Company. 1 mL aliquots of microsomes were kept frozen in liquid nitrogen.
HMGCoA (3-Hydroxy-3-methylglutaryl CoA) Reductase Assay:
[3-^14C]-HMGCoA (57.0 mCi/mmol) was purchased from Amersham Biosciences, UK. HMGCoA, mevalonolactone, P-NADPH (P-Nicotinamide Adenine Dinucleotide Phosphate, Reduced form) were purchased from Sigma Chemical Co. AG 1-8×resin was purchased from Bio-Rad Laboratory. • 1. One μL of dimethyl sulfoxide (DMSO) or 1 μL of DMSO containing a test compound at a concentration sufficient to give a final assay concentration of between 0.1 nM to 1 mM was placed into each well of a Corning 96 well plate. A Volume of 34 µL of buffer (100 mM NaH2PO4, 10 mM Imidazole and 10 mM EDTA), (Ethylenediaminetetra acetic acid) containing with 50 µg/mL rat liver microsomes was added into each well. After incubation for 30 min. on ice, 15 µL of ^14C-HMGCoA (0.024 μCi) with 15 mM NADPH, 25 mM DTT, (Dithiothreitol) was added and incubated at 37° C. for an additional 45 min.
The reaction was terminated by the addition of 10 μL of HCl followed by 5 μL of mevalonolactone. Plates were incubated at room temperature overnight to allow lactonization of mevalonate to mevalonolactone. The incubated samples were applied to columns containing 300 μL of AG1-X8 anion exchange resin in a Corning filter plate.
The eluates were collected into Corning 96 well capture plates. Scintillation cocktail (Ultima-Flo-M) was added into each well and plates counted on a Trilux Microbeta Counter. The IC50 values were calculated with GraphPad software (Prism). Procedure: • 2. Add 1 μL DMSO or compounds into the wells according to the protocol • 3. Add 35 μL incubation buffer with the rat microsomes into each well. Incubate 30 min. at 4° C. • 4. Add 15 μL ^14C-HMGCoA. Incubate 45 min. at 37° C. • 5. Add 10 μL HCl stop reagent • 6. Add 5 μL mevelonolactone. Incubate overnight at room temperature • 7. Apply the containing into the AG 1-X8 anion exchange resin in Corning filter plate • 8. Collect the eluate into Corning capture plate • 9. Add scintillation cocktail Ultima-Flo-M • 10. Count on a Trilux Microbeta Counter μ • 11. Calculate IC50 values

Data set [2] relates to Sterol Biosynthesis in Rat Hepatocytes. The data set can be described thus: Sterol biosynthesis in rat hepatocytes (14C acetic acid into cholesterol). The data set is classed as cell-based. The conditions noted are these: Hepatocyte. As for the experimental part:
Protocol for Sterol Biosynthesis in Rat Hepatocytes:
(§1) Cell culture, compounds treatment and cell labeling:
Frozen rat hepatocytes purchased from XenoTech (cat# N400572) were seeded on 6-well collagen I coated plates at a density of 10^5 cells/per well. The cells were grown in DMEM, (Dulbecco's Modified Eagle Medium) (Gibco, #11054-020) containing 10% FBS (Fetal Bovine Serum) and 10 mM HEPES, (N-2-hydroxyethyl-piperazine-N^1-2-ethane sulfonic acid) (Gibco # 15630-080) for 24 hrs. The cells were pre-incubated with compounds for 4 hrs and then labeled by incubating in medium containing 1 uCVper mL of ^14C acetic acid for an additional 4 hrs. After labeling, the cells were washed twice with 5 mM MOPS, (3-[N-morpholino] propane sulfonic acid) solution containing 150 mM NaCl and 1 mM EDTA and collected in the lysis buffer containing 10% KOH and 80% (vol.) ethanol. Cholesterol extraction and data analysis:
In order to separate labeled cholesterol from labeled non-cholesterol lipids, the cells lysates were subject to saponification at 60° C. for 2 hrs. The lysates were then combined with 0.5 volume of H2O and 2 volumes of hexane, followed by 30 minutes of vigorous shaking. After the separation of two phases, the upper-phase solution was collected and combined with 5 volumes of scintillation cocktail. The amount of ^14C cholesterol was quantified by liquid scintillation counting. The IC50 values were calculated with GraphPad software (Prism 3.03).

In data set [3] the test system is Sterol Biosynthesis in L6 Rat Myoblast. Put plainly: Sterol biosynthesis in L6 rat myoblast (14C acetic acid into cholesterol). The conditions noted are these: 3 hours pre-incubation, 3 hours 14C acetic acid labeling. The class given is cell-based. As for the experimental part: C.) Protocol for Sterol Biosynthesis in L6 Rat Myoblast:
as §1
L6 rat myoblast purchased from ATCC (CRL-1458) were grown in T-150 vented culture flasks and seeded on 12-well culture plates at a density of 60,000 cells per well. The cells were grown in DMEM, (Dulbecco's Modified Eagle Medium) (Gibco, #10567-014) containing 10% heat inactivated FBS (Fetal Bovine Serum) (Gibco # 10082-139) for 72 hours until reaching confluence. The cells were pre-incubated in media with compound and 0.2% DMSO (dimethyl sulfoxide) for 3 hours and then labeled by incubating in medium containing compound, 0.2% DMSO and 1 □]Ci/per mL of ^14C acetic acid for an additional 3 hours. After labeling, the cells were washed once with 1×PBS (Gibco #14190-144) then lysed overnight at 4° C. in buffer containing 10% KOH and 78%(vol.) ethanol. Cholesterol extraction and data analysis:
Lipid ester bonds were hydrolyzed by saponification of the lysates at 60° C. for 2 hours. Sterols (including cholesterol) were extracted from saponified lysates by combining with 3 volumes of hexane and mixing by pipette 6 times. The upper organic phase solution was collected and combined with an equal volume of 1 N KOH in 50% methanol and mixed by pipette 6 times. The upper organic phase was collected in a scintilant-coated plate (Wallac #1450-501) and hexanes removed by evaporation at room temperature for 3 hours. The amount of ^14C cholesterol was quantified by scintillation counting in a Trilux 1450 plate reader (Wallac). The IC50 values were calculated from % inhibitions relative to negative controls vs. compound concentration on Microsoft excel 2000 data analysis wizard using a sigmoid inhibition curve model with formula: y=Bmax (1−(x^n/K^n+x^n))+y2
Where K is the IC50 for the inhibition curve, X is inhibitor concentration, Y is the response being inhibited and Bmax+Y2 is the limiting response as X approaches zero.

`CC(C)c1c(S(=O)(=O)NCc2ccc(C(=O)[O-])cc2)c(-c2ccc(F)cc2)c(-c2ccc(F)cc2)n1CC[C@@H](O)C[C@@H](O)CC(=O)[O-].[Na+].[Na+]` [Example 43P] had a melting point above 250 °C.

In data set [1], `COc1ccc(CNC(=O)c2nc(-c3ccc(F)cc3)n(CC[C@@H]3C[C@@H](O)CC(=O)O3)c2C2CC2)cc1` [Example 104, 5-Cyclopropyl-2-(4-fluoro-phenyl)-1-[2-((2R,4R)-4-hydroxy-6-oxo-tetrahydro-pyran-2-yl)-ethyl]-1H-imidazole-4-carboxylic acid 4-methoxybenzylamide] displayed an IC50 of 75.8 nM.

Turning to `COc1ccc(CNC(=O)c2nc(-c3ccc(F)cc3)n(CC[C@@H](O)C[C@@H](O)CC(=O)O)c2C2CC2)cc1` [Example 111], the values for the IC50 in data set [1], in data set [2] (Rattus norvegicus) and in data set [3] were 1.17 nM, 0.146 nM and 6400 nM, respectively.

With `CC(C)c1c(C(=O)NCc2ccccc2)nc(-c2ccc(F)cc2)n1CC[C@@H](O)C[C@@H](O)CC(=O)O` [Example 4], the IC50 in data set [1] was determined as 7.9 nM; in data set [2] (Rattus norvegicus), 0.42 nM; in data set [3], 3070 nM.

With `Cc1cc(CNC(=O)c2nc(-c3ccc(F)cc3)n(CC[C@@H](O)C[C@@H](O)CC(=O)O)c2C(C)C)no1` [Example 62], the IC50 came out at 7.2 nM in data set [1], 0.58 nM in data set [2] (Rattus norvegicus) and 703 nM in data set [3].

Regarding `CN(Cc1ccccc1)C(=O)c1nc(-c2ccc(F)cc2)n(CC[C@@H](O)C[C@@H](O)CC(=O)O)c1C1CC1` [Example 112], the IC50 worked out at 8.39 nM in data set [1], 1.15 nM in data set [2] (Rattus norvegicus) and 73500 nM in data set [3].

Consider `CC(C)c1c(C(=O)N2CCN(c3ccc(F)cc3F)CC2)nc(-c2ccc(F)cc2)n1CC[C@@H](O)C[C@@H](O)CC(=O)O` [Example 69], for which the IC50 stood at 2.2 nM in data set [1], 0.18 nM in data set [2] (Rattus norvegicus) and 159 nM in data set [3].

`CC(C)c1c(NC(=O)OCc2ccccc2)nc(-c2ccc(F)cc2)n1CC[C@@H](O)C[C@@H](O)CC(=O)[O-].[Na+]` [Example 137, Sodium: (3R,5R)-7-[4-benzyloxycarbonylamino-2-(4-fluoro-phenyl)-5-isopropyl-imidazol-1-yl]-3,5-dihydroxy-heptanoate sodium salt]: the melting point fell in the range of 86 to 90 °C.

In the case of `O=C1C[C@H](O)C[C@@H](CCn2c(-c3ccc(F)cc3)nc(C(=O)NCc3ccccc3)c2C2CC2)O1` [Example 103, 5-Cyclopropyl-2-(4-fluoro-phenyl)-1-[2-((2R,4R)-4-hydroxy-6-oxo-tetrahydro-pyran-2-yl)-ethyl]-1H-imidazole-4-carboxylic acid benzylamide], the IC50 in data set [1] is 50.4 nM; in data set [2] (cell assay, rat hepatocytes, 4 hrs pre-incubation, 4 hrs 14C acetic acid labeling, read-out: IC50), 0.088 nM.

Take `CC(C)c1c(S(=O)(=O)Nc2ccccc2)c(-c2ccc(F)cc2)c(-c2ccc(F)cc2)n1CC[C@@H](O)C[C@@H](O)CC(=O)[O-].[Na+]` [Example 1P, (3R,5R)-7-[2,3-bis-(4-fluoro-phenyl)-5-isopropyl-4-phenylsulfamoyl-pyrrol-1-yl]-3,5-dihydroxy-heptanoic acid monosodium salt]: the melting point was 130 to 134 °C (dec.).

Consider `O=C(O)C[C@H](O)C[C@H](O)CCn1c(-c2ccc(F)cc2)nc(C(=O)NCc2ccccc2)c1C1CC1` [Example 110, Sodium: (3R,5R)-7-[4-Benzylcarbamoyl-5-cyclopropyl-2-(4-fluoro-phenyl)-imidazol-1-yl]-3,5-dihydroxy-heptanoate], for which the IC50 was 1.38 nM in data set [1], 0.218 nM in data set [2] (Rattus norvegicus) and 632 nM in data set [3].
